According to paper PMC9076067 (RSC Advances, 2019):
Values after ≈ are worked out from the molar mass of the structure shown.

Legend:
[1] = parallel artificial membrane permeability assay; format: in vitro ADME; conditions: 200 μM in PBS pH 7.4, five hours, room temperature
[2] = system: Staphylococcus epidermidis ATCC12228; test: MIC/MBC by micro-dilution broth method; format: cell-based; conditions: S. epidermidis ATCC 12228
[3] = system: Staphylococcus aureus ATCC43300; test: MIC/MBC by micro-dilution broth method; format: cell-based; conditions: S. aureus ATCC 43300
[4] = system: Staphylococcus aureus ATCC6538; test: MIC/MBC by micro-dilution broth method; format: cell-based; conditions: S. aureus ATCC 6538
[5] = system: Streptococcus mutans ATCC25175; test: MIC/MBC by micro-dilution broth method; format: cell-based; conditions: S. mutans ATCC 25175
[6] = system: Micrococcus luteus ATCC10240; test: MIC/MBC by micro-dilution broth method; format: cell-based
Staphylococcus aureus = conditions: cited from earlier work
MRSA = conditions: cited from earlier work

For `O=C(O)CN1C(=O)/C(=C/c2ccc(-c3ccc(N(c4ccccc4)c4ccccc4)cc3)c3ccccc23)SC1=S` [5b, (Z)-2-(5-((4-(4-(Diphenylamino)phenyl)naphthalen-1-yl)methylene)-4-oxo-2-thioxothiazolidin-3-yl)acetic acid], the “ability to penetrate the membrane (PAMPA)” value (from here on “ability”) [1] was “none of the tested compounds had the ability to penetrate the cell membrane”.

With `O=C(O)CN1C(=O)/C(=C/c2ccc(-c3ccc(N(c4ccccc4)c4ccccc4)cc3)cc2)SC1=S` [5a, (Z)-2-(5-((4′-(Diphenylamino)-(1,1′-biphenyl)-4-yl)methylene)-4-oxo-2-thioxothiazolidin-3-yl)acetic acid] the “ability” value [1] was “none of the tested compounds had the ability to penetrate the cell membrane”.

`O=C(O)CN1C(=O)/C(=C/c2ccc(-c3ccc(N(c4ccccc4)c4ccccc4)cc3)cc2)NC1=S` [7a, (Z)-2-(5-((4′-(Diphenylamino)-(1,1′-biphenyl)-4-yl)methylene)-4-oxo-2-thioxoimidazolidin-3-yl)acetic acid] showed an MIC [2] of 1.95 µg/mL (≈ 3.86 µM), an MIC [3] of 1.95 µg/mL (≈ 3.86 µM) and an MIC [4] of 1.95 µg/mL (≈ 3.86 µM). The MIC [5] was 62.5 µg/mL (≈ 124 µM), the MIC ([6]; M. luteus ATCC 10240) was 1.95 µg/mL (≈ 3.86 µM) and the MIC/MBC ([6]; ratio, ATCC 10240) was 16.

For `O=C(O)CN1C(=O)/C(=C/c2c3ccccc3c(-c3ccc(N(c4ccccc4)c4ccccc4)cc3)c3ccccc23)SC1=S` [5c, (Z)-2-(5-((10-(4-(Diphenylamino)phenyl)anthracen-9-yl)methylene)-4-oxo-2-thioxothiazolidin-3-yl)acetic acid], the “ability” value [1] was “none of the tested compounds had the ability to penetrate the cell membrane”.

In the case of `O=C1NC(=S)SC1=Cc1ccc(F)c(F)c1F` [5-(2,3,4-trifluorobenzylidene)-rhodanine], the concentration inhibiting growth (Staphylococcus aureus) is listed as 0.5 mg/L and the concentration inhibiting growth (MRSA) is listed as 32 mg/L.
